Values quoted from earlier work as cited in patent US11293915B2, “Bio-adhesive gels and methods of use” (Cornell University, priority 2014, dated 2022).

Settings: DTT incorporated hydrogels, DTT concentrations up to 70 mM

O[C@H](CS)[C@H](O)CS (racemic) [DTT, dithiothreitol]
cytotoxicity: do not cause significant cytotoxicity
